Literature values, collected in patent publication US6184255A, “Pharmaceutical composition comprising coenzyme Q10” (Kaneka Corporation, priority 1996, dated 2001).

Settings: oral, considerably greater amount than actually needed

In the case of `COC1=C(OC)C(=O)C(C/C=C(\C)CC/C=C(\C)CC/C=C(\C)CC/C=C(\C)CC/C=C(\C)CC/C=C(\C)CC/C=C(\C)CC/C=C(\C)CC/C=C(\C)CCC=C(C)C)=C(C)C1=O` [Coenzyme Q10], the adverse gastrointestinal reactions is given as “adverse gastrointestinal reactions such as epigastric discomfort, anorexia, nausea, and diarrheas”.
